Patent US11802120B2, “Fused cyclic urea derivatives as CRHR2 antagonist” (RaQualia Pharma Inc., priority 2018, dated 2023)

target: T1, human CRHR2-alpha (Homo sapiens, UniProt Q13324); assay: cAMP functional assay for human CRHR2 (LANCE Ultra cAMP, TR-FRET); assay type: cell-based; settings: CHO-K1 cells expressing human CRHR2-alpha, agonist human urocortin2 at EC80, cAMP; read-out: IC50 against CRHR2
T1 sequence (Q13324 1-411): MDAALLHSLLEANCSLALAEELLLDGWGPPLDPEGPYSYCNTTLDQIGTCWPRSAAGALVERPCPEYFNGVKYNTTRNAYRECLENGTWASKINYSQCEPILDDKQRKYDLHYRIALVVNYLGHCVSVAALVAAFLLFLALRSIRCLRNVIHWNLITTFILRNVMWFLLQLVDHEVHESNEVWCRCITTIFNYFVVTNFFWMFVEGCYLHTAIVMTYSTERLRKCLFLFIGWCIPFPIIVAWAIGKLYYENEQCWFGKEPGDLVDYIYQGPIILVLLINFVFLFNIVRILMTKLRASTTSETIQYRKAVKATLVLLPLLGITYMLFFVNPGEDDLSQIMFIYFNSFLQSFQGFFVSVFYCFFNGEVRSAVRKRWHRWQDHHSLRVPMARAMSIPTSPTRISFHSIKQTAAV
How it was run: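 Antagonism measured in CHO-K1 cells stably expressing the receptor, serum-starved 7 h then cryopreserved. Thawed cells in HBSS buffer with 0.1% BSA, 0.5 mM IBMX, 5 mM Hepes pH 7.4 were preincubated with compound 30 min at 25° C, then stimulated 30 min with EC80 agonist: urocortin2 for CRHR2, CRF for CRHR1.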

IC50, < 300 nM:
Cc1ncc(Cl)cc1C(=O)N[C@H]1CC[C@H](Cn2c(=O)n(-c3ccc(NCCC(F)F)nc3)c3ccccc32)CC1 [Example 480, 5-chloro-N-((1r,4r)-4-((3-(6-((3,3-difluoropropyl)amino)pyridin-3-yl)-2-oxo-2,3-dihydro-1H-benzo[d]imidazol-1-yl)methyl)cyclo-hexyl)-2-methylnicotinamide]
Cc1ncc(Cl)cc1C(=O)N[C@H]1CC[C@H](Cn2c(=O)n(-c3cccc(-c4cocn4)c3)c3ccccc32)CC1 [Example 568, 5-chloro-2-methyl-N-((1r,4r)-4-((3-(3-(oxazol-4-yl)phenyl)-2-oxo-2,3-dihydro-1H-benzo [d]imidazol-1-yl)methyl)cyclo-hexyl)nicotinamide]
CCNC(=O)c1ccc(-n2c(=O)n(C[C@H]3CC[C@H](NC(=O)c4cc(Cl)cnc4C(F)F)CC3)c3ccccc32)cn1 [Example 551, 5-(3-(((1r,4r)-4-(5-chloro-2-(difluoromethyl)nicotina-mido)cyclohexyl)methyl)-2-oxo-2,3-dihydro-1H-benzo [d]imidazol-1-yl)-N-ethylpicolinamide]
O=C(N[C@H]1CC[C@H](Cn2c(=O)n(Cc3ccccn3)c3ccccc32)CC1)c1cc(Cl)cnc1C(F)(F)F [Example 282, 5-chloro-N-((1r,4r)-4-((2-oxo-3-(pyridin-2-ylmethyl)-2,3-dihydro-1H-benzo[d]imidazol-1-yl)methyl)cyclohexyl)-2-(trifluoromethyl)nicotinamide]
Cc1ncc(Cl)cc1C(=O)N[C@H]1CC[C@H](Cn2c(=O)n(-c3ccc4[nH]nc(Cl)c4c3)c3ccccc32)CC1 [Example 222, 5-chloro-N-((1r,4r)-4-((3-(3-chloro-1H-indazol-5-yl)-2-oxo-2,3-dihydro-1H-benzo[d]imidazol-1-yl)methyl)cyclohexyl)-2-methylnicotinamide]
Cc1ncc(Cl)cc1C(=O)N[C@H]1CC[C@H](Cn2c(=O)n(-c3ccc(-c4cnco4)nc3)c3ccccc32)CC1 [Example 202, 5-chloro-2-methyl-N-((1r,4r)-4-((3-(6-(oxazol-5-yl)pyridin-3-yl)-2-oxo-2,3-dihydro-1H-benzo[d]imidazol-1-yl)methyl)cyclo-hexyl)nicotinamide]
Cc1ncc(Cl)cc1C(=O)N[C@H]1CC[C@H](Cn2c(=O)n(-c3cc(N(C)C)ccc3C#N)c3ccccc32)CC1 [Example 273, 5-chloro-N-((1r,4r)-4-((3-(2-cyano-5-(dimethylamino)phenyl)-2-oxo-2,3-dihydro-1H-benzo[d]imidazol-1-yl)methyl)cyclohexyl)-2-methylnicotinamide]
Cc1ncc(Cl)cc1C(=O)N[C@H]1CC[C@H](Cn2c(=O)n(-c3cnc4c(c3)OCCN4C)c3ccccc32)CC1 [Example 160, 5-chloro-2-methyl-N-((1r,4r)-4-((3-(4-methyl-3,4-dihydro-2H-pyrido[3,2-b][1,4]oxazin-7-yl)-2-oxo-2,3-dihydro-1H-benzo [d]imidazol-1-yl)methyl)cyclo-hexyl)nicotinamide]
Cc1ncc(Cl)cc1C(=O)N[C@H]1CC[C@H](Cn2c(=O)n(-c3ccc4cccnc4c3)c3ccccc32)CC1 [Example 395, 5-chloro-2-methyl-N-((1r,4r)-4-((2-oxo-3-(quinolin-7-yl)-2,3-dihydro-1H-benzo[d]imidazol-1-yl)methyl)cyclo-hexyl)nicotinamide]
CNC(=O)c1ccc(-n2c(=O)n(C[C@H]3CC[C@H](NC(=O)c4cc(Cl)cnc4C(F)F)CC3)c3cc(C)ccc32)cn1 [Example 529, 5-(3-(((1r,4r)-4-(5-chloro-2-(difluoromethyl)nicotinamido)cyclohexyl)methyl)-5-methyl-2-oxo-2,3-dihydro-1H-benzo [d]imidazol-1-yl)-N-methylpicolinamide]
O=C(N[C@H]1CC[C@H](Cn2c(=O)n(-c3cncc(-n4cccn4)c3)c3ccccc32)CC1)c1cc(Cl)cnc1C(F)F [Example 703, N-((1r,4r)-4-((3-(5-(1H-pyrazol-1-yl)pyridin-3-yl)-2-oxo-2,3-dihydro-1H-benzo [d]imidazol-1-yl)methyl)cyclohexyl)-5-chloro-2-(difluoromethyl)nicotinamide]
Cc1ncc(Cl)cc1C(=O)N[C@H]1CC[C@H](Cn2c(=O)n(-c3ccnc(-c4cnco4)c3)c3ccccc32)CC1 [Example 521, 5-chloro-2-methyl-N-((1r,4r)-4-((3-(2-(oxazol-5-yl)pyridin-4-yl)-2-oxo-2,3-dihydro-1H-benzo[d]imidazol-1-yl)methyl)cyclohexyl)nicotinamide]
Cc1ncc(Cl)cc1C(=O)N[C@H]1CC[C@H](Cn2c(=O)n(-c3ccc(-c4cncs4)cc3)c3ccccc32)CC1 [Example 580, 5-chloro-2-methyl-N-((1r,4r)-4-((2-oxo-3-(4-(thiazol-5-yl)phenyl)-2,3-dihydro-1H-benzo[d]imidazol-1-yl)methyl)cyclohexyl)nicotinamide]
O=C(N[C@H]1CC[C@H](Cn2c(=O)n(-c3cncc4ccccc34)c3ccccc32)CC1)c1cc(Cl)cnc1C(F)(F)F [Example 354, 5-chloro-N-((1r,4r)-4-((3-(isoquinolin-4-yl)-2-oxo-2,3-dihydro-1H-benzo[d]imidazol-1-yl)methyl)cyclo-hexyl)-2-(trifluoromethyl) nicotinamide]
Cc1c[nH]c2ncc(-n3c(=O)n(C[C@H]4CC[C@H](NC(=O)c5cc(Cl)cnc5C(F)(F)F)CC4)c4cccnc43)cc12 [Example 427, 5-chloro-N-((1r,4r)-4-((3-(3-methyl-1H-pyrrolo[2,3-b]pyridin-5-yl)-2-oxo-2,3-dihydro-1H-imidazo[4,5-b]pyridin-1-yl)methyl)cyclo-hexyl)-2-(trifluoromethyl) nicotinamide]
CNc1cc(-n2c(=O)n(C[C@H]3CC[C@H](NC(=O)c4cc(Cl)cnc4C(F)F)CC3)c3ccccc32)ccn1 [Example 661, 5-chloro-2-(difluoromethyl)-N-((1r,4r)-4-((3-(2-(methylamino)pyridin-4-yl)-2-oxo-2,3-dihydro-1H-benzo[d]imidazol-1-yl)methyl)cyclohexyl)nicotinamide]
COCCOc1cncc(-n2c(=O)n(C[C@H]3CC[C@H](NC(=O)c4cc(Cl)cnc4C)CC3)c3ccccc32)c1 [Example 486, 5-chloro-N-((1r,4r)-4-((3-(5-(2-methoxyethoxy)pyridin-3-yl)-2-oxo-2,3-dihydro-1H-benzo[d]imidazol-1-yl)methyl)cyclo-hexyl)-2-methylnicotinamide]
Cc1ncc(Cl)cc1C(=O)N[C@H]1CC[C@H](Cn2c(=O)n(-c3ccccc3Cl)c3ncccc32)CC1 [Example 234, 5-chloro-N-((1r,4r)-4-((3-(2-chlorophenyl)-2-oxo-2,3-dihydro-1H-imidazo[4,5-b]pyridin-1-yl)methyl)cyclo-hexyl)-2-methylnicotinamide]
CNC(=O)c1ccc(-n2c(=O)n(C[C@H]3CC[C@H](NC(=O)c4cc(Cl)cnc4CF)CC3)c3ccccc32)cn1 [Example 582, 5-(3-(((1r,4r)-4-(5-chloro-2-(fluoromethyl)nicotina-mido)cyclohexyl)methyl)-2-oxo-2,3-dihydro-1H-benzo[d]imidazol-1-yl)-N-methylpicolinamide]
CNC(=O)c1ccc(-n2c(=O)n(C[C@H]3CC[C@H](NC(=O)c4cc(Cl)cnc4C)CC3)c3cccc(F)c32)cn1 [Example 235, 5-(3-(((1r,4r)-4-(5-chloro-2-methylnicotinamido)cyclo-hexyl)methyl)-7-fluoro-2-oxo-2,3-dihydro-1H-benzo[d]imidazol-1-yl)-N-methylpicolinamide]
CCn1nc2ccccc2c1C(=O)N[C@H]1CC[C@H](Cn2c(=O)n(-c3ccc(C)nc3)c3ccccc32)CC1 [Example 38, 2-ethyl-N-((1r,4r)-4-((3-(6-methylpyridin-3-yl)-2-oxo-2,3-dihydro-1H-benzo[d]imidazol-1-yl)methyl)cyclohexyl)-2H-indazole-3-carboxamide]
Cc1cc(OCCO)ncc1-n1c(=O)n(C[C@H]2CC[C@H](NC(=O)c3cc(Cl)cnc3C(F)(F)F)CC2)c2ccccc21 [Example 357, 5-chloro-N-((1r,4r)-4-((3-(6-(2-hydroxyethoxy)-4-methylpyridin-3-yl)-2-oxo-2,3-dihydro-1H-benzo[d]imidazol-1-yl)methyl)cyclohexyl)-2-(trifluoromethyl)nicotinamide]
O=C(N[C@H]1CC[C@H](Cn2c(=O)n(-c3ccc(N4CCOCC4=O)nc3)c3ccccc32)CC1)c1cc(Cl)cnc1C(F)F [Example 505, 5-chloro-2-(difluoromethyl)-N-((1r,4r)-4-((2-oxo-3-(6-(3-oxomorpholino)pyridin-3-yl)-2,3-dihydro-1H-benzo[d]imidazol-1-yl)methyl)cyclo-hexyl)nicotinamide]
